Measured values: ChEMBL document CHEMBL1151150, “Brominated Metabolites from the Sponge Aplysina (verongia) thiona” (J Nat Prod, 1990)
Active and inactive are the calls of the source.

What was measured:
Format in all cases: functional, organism-based
Staphylococcus aureus = experiment: Antimicrobial activity against Staphylococcus aureus
Streptococcus pyogenes = experiment: Antimicrobial activity against Streptococcus pyogenes
[1] = tested on: Salmonella enterica subsp. enterica serovar Typhi str. CT18; experiment: Antimicrobial activity against Salmonella typhi
Shigella sonnei = experiment: Antimicrobial activity against Shigella sonnei

Measured: Activity

CCCCCO[C@]1(OC)C(Br)=C[C@@](O)(CC(N)=O)C=C1Br
inactive: all assays above

COc1c(Br)cc2c(c1Br)OC(=N)C2
inactive: all assays above

COc1c(Br)cc2c(c1Br)OC(=O)C2=C(C)C
inactive: all assays above

CCCCO[C@]1(OC)C(Br)=C[C@@](O)(CC(N)=O)C=C1Br
inactive: all assays above
